Experimental data reported in patent publication US20140024527A1, “HERBICIDAL PYRAZINONES” (E I DU DE NEMOURS AND COMPANY, priority 2011, published 2014).

Key:
Format in all cases: in vivo
[1] = system: giant foxtail (Setaria faberii); assay: Test A preemergence; settings: 0 to 100 scale, 0 no effect, 100 complete control, approx. 10 days
Text: (§1) Seeds of barnyardgrass (Echinochloa crus-galli), large crabgrass (Digitaria sanguinalis), giant foxtail (Setaria faberii), morningglory (Ipomoea spp.), pigweed (Amaranthus retroflexus), velvetleaf (Abutilon theophrasti), wheat (Triticum aestivum) and corn (Zea mays) were planted into a blend of loam soil and sand and treated preemergence with a directed soil spray using test chemicals formulated in a non-phytotoxic solvent mixture which included a surfactant. At the same time these species were also treated with postemergence applications of test compounds formulated in the same manner. Plants ranged in height from 2 to 10 cm and were in the one- to two-leaf stage for the postemergence treatments. Treated plants and untreated controls were maintained in a greenhouse for approximately 10 days, after which time all treated plants were compared to untreated controls and visually evaluated for injury. Plant response ratings, summarized in Table A, are based on a 0 to 100 scale where 0 is no effect and 100 is complete control.

[2] = system: large crabgrass (Digitaria sanguinalis); assay: Test A preemergence; settings: 0 to 100 scale, 0 no effect, 100 complete control, approx. 10 days
Text: as §1

[3] = system: morningglory (Ipomoea spp.); assay: Test A preemergence; settings: 0 to 100 scale, 0 no effect, 100 complete control, approx. 10 days
Text: as §1

[4] = system: corn (Zea mays); assay: Test A preemergence; settings: 0 to 100 scale, 0 no effect, 100 complete control, approx. 10 days
Text: as §1

[5] = system: velvetleaf (Abutilon theophrasti); assay: Test A preemergence; settings: 0 to 100 scale, 0 no effect, 100 complete control, approx. 10 days
Text: as §1

[6] = system: barnyardgrass (Echinochloa crus-galli); assay: Test A preemergence; settings: 0 to 100 scale, 0 no effect, 100 complete control, approx. 10 days
Text: as §1

[7] = system: pigweed (Amaranthus retroflexus); assay: Test A preemergence; settings: 0 to 100 scale, 0 no effect, 100 complete control, approx. 10 days
Text: as §1

[8] = system: wheat (Triticum aestivum); assay: Test A preemergence; settings: 0 to 100 scale, 0 no effect, 100 complete control, approx. 10 days
Text: as §1

[9] = system: giant foxtail (Setaria faberii); assay: Test A postemergence; settings: 0 to 100 scale, 0 no effect, 100 complete control, approx. 10 days
Text: as §1

[10] = system: large crabgrass (Digitaria sanguinalis); assay: Test A postemergence; settings: 0 to 100 scale, 0 no effect, 100 complete control, approx. 10 days
Text: as §1

[11] = system: morningglory (Ipomoea spp.); assay: Test A postemergence; settings: 0 to 100 scale, 0 no effect, 100 complete control, approx. 10 days
Text: as §1

[12] = system: corn (Zea mays); assay: Test A postemergence; settings: 0 to 100 scale, 0 no effect, 100 complete control, approx. 10 days
Text: as §1

[13] = system: velvetleaf (Abutilon theophrasti); assay: Test A postemergence; settings: 0 to 100 scale, 0 no effect, 100 complete control, approx. 10 days
Text: as §1

[14] = system: barnyardgrass (Echinochloa crus-galli); assay: Test A postemergence; settings: 0 to 100 scale, 0 no effect, 100 complete control, approx. 10 days
Text: as §1

[15] = system: pigweed (Amaranthus retroflexus); assay: Test A postemergence; settings: 0 to 100 scale, 0 no effect, 100 complete control, approx. 10 days
Text: as §1

[16] = system: wheat (Triticum aestivum); assay: Test A postemergence; settings: 0 to 100 scale, 0 no effect, 100 complete control, approx. 10 days
Text: as §1

[17] = system: umbrella sedge (Cyperus difformis); assay: Test B flooded paddy test; settings: Flood, scale 0 to 100
Text: (§2) Plant species in the flooded paddy test consisted of rice (Oryza sativa), umbrella sedge (Cyperus difformis), ducksalad (Heteranthera limosa) and barnyardgrass (Echinochloa crus-galli) grown to the 2-leaf stage for testing. At time of treatment, test pots were flooded to 3 cm above the soil surface, treated by application of test compounds directly to the paddy water, and then maintained at that water depth for the duration of the test. Treated plants and controls were maintained in a greenhouse for 13 to 15 days, after which time all species were compared to controls and visually evaluated. Plant response ratings, summarized in Table B, are based on a scale of 0 to 100 where 0 is no effect and 100 is complete control. A dash (-) response means no test result.

[18] = system: rice (Oryza sativa); assay: Test B flooded paddy test; settings: Flood, scale 0 to 100
Text: as §2

[19] = system: barnyardgrass (Echinochloa crus-galli); assay: Test B flooded paddy test; settings: Flood
Text: as §2

[20] = system: ducksalad (Heteranthera limosa); assay: Test B flooded paddy test; settings: Flood, scale 0 to 100
Text: as §2

`COCCCn1c(-c2cc(F)cc(F)c2)c(Cl)nc(C(=O)C2=C(O)CCCC2=O)c1=O` [Compound 8] was tested, and the “Plant response rating, Foxtail, Giant” value ([1]; 31 g ai/ha) was 0, the “Plant response rating, Foxtail, Giant” value ([1]; 125 g ai/ha) was 0 and the “Plant response rating, Crabgrass, Large” value ([2]; 31 g ai/ha) was 20. The “Plant response rating, Crabgrass, Large” value ([2]; 125 g ai/ha) was 40, the “Plant response rating, Morningglory” value ([3]; 31 g ai/ha) was 0 and the “Plant response rating, Morningglory” value ([3]; 125 g ai/ha) was 10. For the same compound, the “Plant response rating, Corn” value ([4]; 31 g ai/ha) was 0, the “Plant response rating, Corn” value ([4]; 125 g ai/ha) was 0 and the “Plant response rating, Velvetleaf” value ([5]; 31 g ai/ha) was 0. The “Plant response rating, Velvetleaf” value ([5]; 125 g ai/ha) was 0, the “Plant response rating, Barnyardgrass” value ([6]; 31 g ai/ha) was 0 and the “Plant response rating, Barnyardgrass” value ([6]; 125 g ai/ha) was 10. For the same compound, the “Plant response rating, Pigweed” value ([7]; 31 g ai/ha) was 0, the “Plant response rating, Pigweed” value ([7]; 125 g ai/ha) was 10 and the “Plant response rating, Wheat” value ([8]; 31 g ai/ha) was 0. For the same compound, the “Plant response rating, Wheat” value ([8]; 125 g ai/ha) was 0, the “Plant response rating, Foxtail, Giant” value ([9]; 31 g ai/ha) was 0 and the “Plant response rating, Foxtail, Giant” value ([9]; 125 g ai/ha) was 10. For the same compound, the “Plant response rating, Crabgrass, Large” value ([10]; 31 g ai/ha) was 0, the “Plant response rating, Crabgrass, Large” value ([10]; 125 g ai/ha) was 30 and the “Plant response rating, Morningglory” value ([11]; 31 g ai/ha) was 0. The “Plant response rating, Morningglory” value ([11]; 125 g ai/ha) was 50, the “Plant response rating, Corn” value ([12]; 31 g ai/ha) was 0 and the “Plant response rating, Corn” value ([12]; 125 g ai/ha) was 0. For the same compound, the “Plant response rating, Velvetleaf” value ([13]; 31 g ai/ha) was 10, the “Plant response rating, Velvetleaf” value ([13]; 125 g ai/ha) was 50 and the “Plant response rating, Barnyardgrass” value ([14]; 31 g ai/ha) was 0. The “Plant response rating, Barnyardgrass” value ([14]; 125 g ai/ha) was 10, the “Plant response rating, Pigweed” value ([15]; 31 g ai/ha) was 20 and the “Plant response rating, Pigweed” value ([15]; 125 g ai/ha) was 40. The “Plant response rating, Wheat” value ([16]; 31 g ai/ha) was 0, the “Plant response rating, Wheat” value ([16]; 125 g ai/ha) was 0 and the “Plant response rating, Sedge, Umbrella” value ([17]; 31 g ai/ha) was 0. For the same compound, the “Plant response rating, Sedge, Umbrella” value ([17]; 62 g ai/ha) was 40, the “Plant response rating, Sedge, Umbrella” value ([17]; 125 g ai/ha) was 40 and the “Plant response rating, Sedge, Umbrella” value ([17]; 250 g ai/ha) was 75. For the same compound, the “Plant response rating, Rice” value ([18]; 31 g ai/ha) was 0, the “Plant response rating, Rice” value ([18]; 62 g ai/ha) was 0 and the “Plant response rating, Rice” value ([18]; 125 g ai/ha) was 0. The “Plant response rating, Rice” value ([18]; 250 g ai/ha) was 25, the “Plant response rating, Barnyardgrass” value ([19]; 31 g ai/ha, scale 0 to 100) was 0 and the “Plant response rating, Barnyardgrass” value ([19]; 62 g ai/ha, scale 0 to 100) was 0. The “Plant response rating, Barnyardgrass” value ([19]; 125 g ai/ha, scale 0 to 100) was 0, the “Plant response rating, Barnyardgrass” value ([19]; 250 g ai/ha, scale 0 to 100 (0 no effect, 100 complete control)) was 40 and the “Plant response rating, Ducksalad” value ([20]; 31 g ai/ha) was 0. For the same compound, the “Plant response rating, Ducksalad” value ([20]; 62 g ai/ha) was 0, the “Plant response rating, Ducksalad” value ([20]; 125 g ai/ha) was 30 and the “Plant response rating, Ducksalad” value ([20]; 250 g ai/ha) was 80.
